Assay [1] concerns Lewis rats with Adjuvant-Induced Arthritis. The assay can be described thus: Adjuvant-induced arthritis (AA) rat model: footpad width, radiographs, spleen weight. Type of assay: in vivo. The procedure: Summary: Adjuvant-Induced Arthritis (“AA”) was induced by intradermal injection of complete Freund's adjuvant (CFA) into the base of the tail of Lewis rats. Controls received intradermal injections of the arthritogenic antigen, M. butyricum suspended in saline. […] AA and control rats were given once-daily intraperitoneal (i.p.) injections of narcistatin (5 mg/Kg/day, in 250 μl sterile saline), vehicle, or no treatment initiated at disease onset and continued through severe disease.
Adult male Lewis rats (200-250 g) were purchased from Charles River Laboratories, Raleigh, N.C. and housed two per cage. The animals were allowed to acclimate to the Sun Health Research Institute's vivarium for 7 days prior to the start of the experiment. The animals were maintained on a 12-h off/on light schedule. For AA rats rodent Diet (Purina Lab Diet 5001) was placed in the bottom of the cage and water was supplied using long-stemmed sipper tubes for easy access to food and water. […] Animals were weighed and observed daily to ensure adequate weight gain and good general health. Body weights and footpad measures were started 1 week prior to the first adjuvant injection to acclimate the animals to these mild stresses and obtain baseline data. Other than the development of arthritis, the good health of the animals was maintained throughout the course of the experiments. Protocols for the use and care of the animals in the study were approved prior to beginning the experiments by the Sun Health Research Institute Animal Use and Care Committee and complied with NIH guidelines for the humane use and care of research animals. Dorsoplantar footpad measurements were completed every other day. Prior to sacrifice the animals were given a 1.0 ml intraperitoneal (i.p.) injection of 8% chloral hydrate in sterile saline and radiographs were taken of their hind limbs to assess disease severity. The animals were then sacrificed using an overdose of chloral hydrate.
Sodium narcistatin was synthesized as previously described (27). CFA was prepared by emulsifying Mycobacterium butyricum (0.03 g dried and heat killed; Difco, Detroit, Mich. in 10 ml sterile mineral oil). M. butyricum (0.03 g) also was suspended in 10 ml sterile saline. The CFA and M. butyricum in saline were prepared by grinding the M. butyricum with a mortar and pestle until the lyophilized bacteria had turned from a light beige to an eggshell white powder. The mineral oil or saline was then slowly worked into the heat-killed bacteria using the mortar and pestle. The suspensions were treated with a sonic dismembraner for 5 min to ensure that the bacterial cell wall remained suspended in the mineral oil or saline until the animal injections. While there is variability in severity of disease development between the batches of adjuvant, there is very little variability within each batch. All animals in each experiment were challenged with the same preparation of adjuvant and 100% of the animals developed arthritis with similar timing of disease onset.
Lewis rats were randomly assigned into five experimental groups of four animals per group. The experimental groups were 1) saline/M. Butyricum suspended in saline (non-arthritic; control for drug and antigen challenge), 2) sodium narcistatin/M. Butyricum suspended in saline (non-arthritic; drug control for antigen challenge), 3) no treatment-CFA (arthritic; control for stress of injections), 4) saline-CFA (arthritic; control for drug treatment), and 5) sodium-narcistatin-CFA (arthritic) treatments. The experiment was completed with an N=4 then repeated with an additional N=4. The data from each group in the first and repeated experiment were compared. No statistical differences between the findings from these repeat experiments were found; therefore, the data was combined to give an N=8 for each experimental group. CFA or saline/M. Butyricum injections were given on experimental day 1. […]

A further assay deals with TNFα production. The assay can be described thus: TNFα production from splenic cultures of Balb/c mice treated with SNS. Type of assay: in vivo, mouse. The conditions noted are these: non-CAIA Balb/c mice treated 5 days, p<0.01. The procedure:
Balb/c mice (n=5) were treated i.p. with SNS at 5 mg/Kg or with PBS for 5 consecutive days. Spleen were isolated on the next day after the last SNS injection and the splenocytes were stimulated with anti-CD3 antibody or LPS for 24 hrs, and supernatant were analyzed for TNF-α production.
Isolated splenic cells were cultured with either immobilized […] (50 ug/ml) or 1 ug/ml LPS for […]. Cells without any stimulation were included as control. The supernatants from these cultures were analyzed for TNFα using BD™ CBA Mouse Inflammatory Kit (BD Biosciences), according to the manufacture's procedure. The average TNF concentration in each culture was derived from 2-3 independent experiments of 4-5 mice per group per experiment. No arthritis was induced in these experiments. […] Thus, TNFα production was reduced in the splenic culture of SNS-treated mice, in response to T cell activation by anti-CD3 antibody.

The mark [2] stands for this setting: AA rats, 5 mg/Kg/day i.p., vs vehicle treated AA rats.

Consider `O=C1N[C@@H]2C(=C[C@H](O)[C@H]3OP(=O)(O)O[C@H]32)c2cc3c(c(O)c21)OCO3` [SNS, sodium narcistatin], for which, in assay [1] (setting [2]), the “reduction of bone loss, as measured by radiographic analysis” value was about 50% and the “reduction of hind limb inflammation, as measured by dorsoplantar width” value is on record as about 70%. In addition, the “time of disease onset” value in assay [1] (CFA-challenged rats) is “did not change the time of disease onset”. Besides, in assay [1] (CFA-challenged rats, day 23 to day 28 post-immunization, vs vehicle-treated arthritic rats), the “soft tissue swelling of the dorsoplantar footpads” value was “significantly decreased the soft tissue swelling”. Besides, the “redness and soft tissue swelling of hind limbs” value in assay [1] (arthritic rats, daily treatment day 10 through day 28, photomicrographs day 28) was “dramatically decreased the redness and soft tissue swelling”. Moreover, the “bone destruction and cartilage loss in radiographs” value in assay [1] (arthritic rats, day 28, vs saline-treated arthritic rats) is “decreases in bone destruction (mainly osteoporosis and erosions) and cartilage loss”. Besides, the “radiographic scores of ankle joints” value in assay [1] (arthritic rats, day 28, vs vehicle or no treatment, P<0.05) is listed as “significantly lower radiographic scores”. The “spleen weight, arthritic rats” value in assay [1] (day 28, vs Saline-CFA) is “blocked this increase in spleen weight”. Further, the “spleen weight, antigen-challenged non-arthritic rats” value in assay [1] (day 28, vs saline) is listed as “did not differ”. Also, the “footpad width in non-arthritic animals” value in assay [1] (non-arthritic, vehicle vs drug) was “no differences in footpad width”. Also, the “TNFα in splenic cultures stimulated with anti-CD3” value in the assay with TNFα production was “significant reduction of TNFα”.
